Paper PMC12298648, “An Evaluation of the Cytotoxicity and Safety Profile of Usnic Acid for a Broad Panel of Human Cancers and Normal Cells with Respect to Its Enantiospecificity” (Molecules, 2025)
≈ marks a conversion by molar mass, not a printed value. Where two headings read alike, the source gives them in different places.

Legend:
MCF10A = experiment: MTT viability assay, normal breast epithelial cells; type: cell-based, human; details: for IC50: Homo sapiens, MCF-10A, MCF10A normal cells; for Cell viability: MCF10A, 24 h
Source text: (§1) Cell lines of different origins were used in the study and grouped as follows: prostate panel (human prostate carcinomas: DU145, derived from metastatic site: brain; grade IV PC3, derived from metastatic site: bone; LNCaP, derived from the metastatic site: lymph node; prostate epithelial, PNT2), colon panel (colorectal adenocarcinomas: HT29, originating from a primary tumor; Duke’s type C DLD-1, with the potential to lymph node metastasis; highly metastatic HCT116; colon epithelial cells CCD 841 CoN), thyroid panel (follicular thyroid carcinoma FTC133, anaplastic thyroid carcinoma 8505C, papillary thyroid carcinoma TPC-1, normal thyroid follicular epithelial Nthy-ori 3–1), breast panel (ER-positive breast adenocarcinoma MCF7, ER-negative breast adenocarcinoma MDA-MB-231, breast epithelial MCF10A), brain panel (neuroblastoma SH-SY5Y, glioblastoma U-87 MG, murine astrocytes C8D1A). All cell lines were purchased from Merck (Darmstadt, Germany).
(§2) Cells were grown under standard conditions (37 °C, 5% CO2) and culture media (DMEM/F12 for PNT2, PC3, FTC133, 8505 C, MDA-MB-231, TPC-1; DMEM Low Glucose for DU145; DMEM High Glucose for HCT116, DLD-1, SH-SY5Y, U87MG, C8D1A; MEM with NEAA for MCF7; MEM for CCD 841 CoN; McCoy’s for HT29; RPMI1640 with sodium pyruvate for LNCaP; DMEM/F12 with 20 ng/mL epidermal growth factor (EGF), 10 μg/mL insulin, 0.5 μg/mL hydrocortisone, 100 ng/mL cholera toxin) for MCF10A), supplemented with 10% fetal bovine serum (FBS) or 5% donor horse serum for MCF10A, and 1% antibiotics solution (10,000 U penicillin and 10 mg streptomycin/mL). The tested substances were prepared as 10 mg/mL stock solutions in DMSO and further diluted in the culture media to the working concentrations. Cells were treated with UA enantiomers at the concentration range of 0–50 µg/mL. The influence of DMSO on cell viability was also examined, with the final concentration […], and no toxic effect was noted.
(§3) The cells were seeded onto 96-well plates at a density of 1.5 × 10^4 cells/well. After 24 h UA enantiomers were added. Cell viability was determined after 24, 48, and 72 h by the MTT assay, as described previously. Doxorubicin was used as a reference cytostatic drug. All analyses were performed in triplicate; cell viability was expressed as % of control, untreated cells (mean ± SD), and IC50 values (concentration at which cell viability is inhibited by 50%), if possible.

HT29 = experiment: MTT viability assay, HT29 colon cancer cells; type: cell-based, human; details: for Cell viability: HT29, 24 h; for IC50: Homo sapiens, HT-29
Source text: as §1, §2, §3

8505C = experiment: MTT viability assay, 8505C anaplastic thyroid carcinoma cells; type: cell-based, human; details: for Cell viability: 24 h; for IC50: Homo sapiens
Source text: as §1, §2, §3

MCF7 = experiment: MTT viability assay, MCF7 breast cancer cells; type: cell-based, human; details: for IC50: Homo sapiens; for Cell viability: MCF7, 24 h
Source text: as §1, §2, §3
(§4) The selectivity index (SI) was calculated, if possible, by dividing the IC50 value obtained for non-cancerous cells line by the IC50 values obtained for appropriate cancer cell line, as described previously. […] The values above 3 indicate good selectivity.

HepG2 cells = test system: HepG2 cells; design: method as in PMID 40368021; details: cited from earlier work
C8D1A = experiment: MTT viability assay, normal astrocytes C8D1A; type: cell-based, murine; details: C8D1A, 24 h
Source text: as §1, §2, §3

TPC-1 = experiment: MTT viability assay, TPC-1 papillary thyroid carcinoma cells; type: cell-based, human; details: for IC50: Homo sapiens, TPC1; for Cell viability: TPC-1, 24 h
Source text: as §1, §2, §3, §4

PNT2 = experiment: MTT viability assay, normal prostate epithelial cells; type: cell-based, human; details: for IC50: Homo sapiens; for Cell viability: PNT2, 24 h
Source text: as §1, §2, §3

WM793 cells = test system: WM793 cells; design: method as in PMID 34577645; details: WM793, 48 h; cited from earlier work
DU145 = experiment: MTT viability assay, DU145 prostate cancer cells; type: cell-based, human; details: for Cell viability: DU145, 24 h; for IC50: Homo sapiens, DU-145
Source text: as §1, §2, §3, §4

Compound: CC(=O)C1=C(O)C=C2Oc3c(C(C)=O)c(O)c(C)c(O)c3[C@@]2(C)C1=O [UA(+), (+)-usnic acid]
- IC50 (MCF10A; 48 h): > 50 µg/mL
- IC50 (MCF10A; 72 h): 44.8 µg/mL (≈ 130 µM)
- Cell viability (MCF10A; 2.5 µg/mL): 95.69 % of control
- Cell viability (MCF10A; 5 µg/mL): 98.53 % of control
- Cell viability (MCF10A; 10 µg/mL): 94.31 % of control
- Cell viability (MCF10A; 20 µg/mL): 97.06 % of control
- Cell viability (MCF10A; 30 µg/mL): 97.25 % of control
- Cell viability (MCF10A; 40 µg/mL): 97.35 % of control
- Cell viability (MCF10A; 50 µg/mL): 94.02 % of control
- Cell viability (HT29; 2.5 µg/mL): 103.23 % of control
- Cell viability (HT29; 5 µg/mL): 91.51 % of control
- Cell viability (HT29; 10 µg/mL): 88.42 % of control
- Cell viability (HT29; 20 µg/mL): 84.70 % of control
- Cell viability (HT29; 30 µg/mL): 77.54 % of control
- Cell viability (HT29; 40 µg/mL): 74.11 % of control
- Cell viability (HT29; 50 µg/mL): 72.56 % of control
- IC50 (HT29; HT29, 48 h): > 50 µg/mL
- IC50 (HT29; HT29, 72 h): > 50 µg/mL
- Cell viability (8505C; 2.5 µg/mL): 102.52 % of control
- Cell viability (8505C; 5 µg/mL): 103.05 % of control
- Cell viability (8505C; 10 µg/mL): 98.80 % of control
- Cell viability (8505C; 20 µg/mL): 102.26 % of control
- Cell viability (8505C; 30 µg/mL): 99.47 % of control
- Cell viability (8505C; 40 µg/mL): 102.26 % of control
- Cell viability (8505C; 50 µg/mL): 108.63 % of control
- IC50 (8505C; 48 h): > 50 µg/mL
- IC50 (8505C; 72 h): > 50 µg/mL
- IC50 (MCF7; MCF7, 48 h): > 50 µg/mL
- IC50 (MCF7; MCF7, 72 h): > 50 µg/mL
- Cell viability (MCF7; 2.5 µg/mL): 106.54 % of control
- Cell viability (MCF7; 5 µg/mL): 108.77 % of control
- Cell viability (MCF7; 10 µg/mL): 108.15 % of control
- Cell viability (MCF7; 20 µg/mL): 103.95 % of control
- Cell viability (MCF7; 30 µg/mL): 89.38 % of control
- Cell viability (MCF7; 40 µg/mL): 87.41 % of control
- Cell viability (MCF7; 50 µg/mL): 87.78 % of control
- selectivity index (SI) (MCF7; MCF7 cells, 72 h): ~3
- IC50 (hepatotoxicity) (HepG2 cells; HepG2, 48 h): 28.2 µg/mL (≈ 81.9 µM)
- IC50 (hepatotoxicity) (HepG2 cells; HepG2, 72 h): 24.4 µg/mL (≈ 70.9 µM)
- Cell viability (C8D1A; 2.5 µg/mL): 110.33 % of control
- Cell viability (C8D1A; 5 µg/mL): 110.17 % of control
- Cell viability (C8D1A; 10 µg/mL): 96.58 % of control
- Cell viability (C8D1A; 20 µg/mL): 91.17 % of control
- Cell viability (C8D1A; 30 µg/mL): 88.67 % of control
- Cell viability (C8D1A; 40 µg/mL): 86.17 % of control
- Cell viability (C8D1A; 50 µg/mL): 106.42 % of control
- IC50 (TPC-1; TPC-1, 48 h): > 50 µg/mL
- IC50 (TPC-1; TPC-1, 72 h): 28.2 µg/mL (≈ 81.9 µM)
- selectivity index (SI) (TPC-1; IC50 Nthy ori 3-1 / IC50 TPC-1, 72 h): 1.18
- Cell viability (TPC-1; 2.5 µg/mL): 101.62 % of control
- Cell viability (TPC-1; 5 µg/mL): 105.96 % of control
- Cell viability (TPC-1; 10 µg/mL): 105.31 % of control
- Cell viability (TPC-1; 20 µg/mL): 97.02 % of control
- Cell viability (TPC-1; 30 µg/mL): 95.96 % of control
- Cell viability (TPC-1; 40 µg/mL): 91.23 % of control
- Cell viability (TPC-1; 50 µg/mL): 87.50 % of control
- IC50 (PNT2; PNT2, 48 h): 37.4 µg/mL (≈ 109 µM)
- IC50 (PNT2; PNT2, 72 h): 20.4 µg/mL (≈ 59.2 µM)
- Cell viability (PNT2; 5 µg/mL): 101.11 % of control
- Cell viability (PNT2; 10 µg/mL): 104.00 % of control
- Cell viability (PNT2; 20 µg/mL): 96.96 % of control
- Cell viability (PNT2; 30 µg/mL): 68.67 % of control
- Cell viability (PNT2; 40 µg/mL): 59.70 % of control
- Cell viability (PNT2; 50 µg/mL): 56.52 % of control
- IC50 (WM793 cells): 30.05 µg/mL (≈ 87.3 µM)
- Cell viability (DU145; 2.5 µg/mL): 102.26 % of control
- Cell viability (DU145; 5 µg/mL): 94.38 % of control
- Cell viability (DU145; 10 µg/mL): 86.92 % of control
- Cell viability (DU145; 20 µg/mL): 87.54 % of control
- Cell viability (DU145; 30 µg/mL): 72.41 % of control
- Cell viability (DU145; 40 µg/mL): 68.15 % of control
- Cell viability (DU145; 50 µg/mL): 67.13 % of control
- IC50 (DU145; DU145, 48 h): 11.5 µg/mL (≈ 33.4 µM)
- IC50 (DU145; DU145, 72 h): 12.1 µg/mL (≈ 35.1 µM)
- selectivity index (SI) (DU145; IC50 PNT2 / IC50 DU145, 48 h): 3.25
- selectivity index (SI) (DU145; IC50 PNT2 / IC50 DU145, 48 h, listed as (+)-UA): exceeding 3
- selectivity index (SI) (DU145; IC50 PNT2 / IC50 DU145, 72 h): 1.68
